Values of other authors as cited in patent US7713550B2, “Controlled release sodium valproate formulation” (Andrx Corporation, priority 2004, dated 2010).

Details: for valproic acid

- solubility: 1270 µg/mL
Structure (SMILES): CCCC(CCC)C(=O)O [divalproex sodium]
